The target of the test is T1, human PF4 (Homo sapiens, UniProt P02776).
T1 construct: PF4 is a 70 amino acid, lysine-rich 7.8 kDa platelet-specific protein; made in house; host or cells: Escherichia coli BL21DE3 pLysS (pT7-7) and/or Drosophila S2 cells
T1 sequence (P02776 32-101): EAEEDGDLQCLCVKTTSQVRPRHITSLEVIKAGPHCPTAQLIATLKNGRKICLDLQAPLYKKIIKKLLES
Briefly: Inhibition of PF4 tetramer formation (BS3 cross-linking, SDS-PAGE). Format: biochemical. The settings on record: for IC50: read-out: IC50 of PF4 tetramer formation inhibition; for inhibition at 5 µM: 5 μM inhibitor; for inhibition at 5 µM / inhibition at 10 µM: read-out: % inhibition of PF4 tetramer formation at single concentration of inhibitor; for inhibition at 10 µM: 10 μM inhibitor (column A). The essentials: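 Monomer, dimer, trimer and tetramer fractions were quantified by densitometry after reducing 12% SDS-PAGE of BS3-cross-linked (0.2 mM, 30 min, room temperature) PF4. Before cross-linking, 10 μg/ml E. coli-expressed human WT PF4 in PBS was exposed to compound for 15 min at 37° C or 60 min at room temperature; controls lacked compound.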

The structures appear in SMILES notation.

Our source for the IC50 and inhibition values is patent US20250281424A1 (New York Blood Center, Inc, priority 2020, published 2025).

With `O=C(O)CCC(=O)C1C(=O)c2ccc(C(=O)c3ccc4c(c3)C(=O)C(C(=O)CCC(=O)O)C4=O)cc2C1=O` (stereo not drawn) [Example 130, 4-{5-[2-(3-carboxypropanoyl)-1,3-dioxo-2,3-dihydro-1H-indene-5-carbonyl]-1,3-dioxo-2,3-dihydro-1H-inden-2-yl}-4-oxobutanoic acid], the IC50 (as a rule, the concentration that inhibits the measured activity by half) was 1.4 µM.
On to `CC(C)(C)OC(=O)N1CC2(CC(C(=O)C3C(=O)c4ccc(C(=O)c5ccc6c(c5)C(=O)C(C(=O)C5CC7(C5)CN(C(=O)OC(C)(C)C)C7)C6=O)cc4C3=O)C2)C1` (stereo not drawn) [Example 131, tert-butyl 6-[5-(2-{2-[(tert-butoxy)carbonyl]-2-azaspiro[3.3]heptane-6-carbonyl}-1,3-dioxo-2,3-dihydro-1H-indene-5-carbonyl)-1,3-dioxo-2,3-dihydro-1H-indene-2-carbonyl]-2-azaspiro[3.3]heptane-2-carboxylate], for which the inhibition at 5 µM amounted to 83%, the inhibition at 10 µM stood at 88% and the IC50 was 4.1 µM.
The like results for `C[C@H]1C[C@@H](C(=O)C2C(=O)c3ccc(C(=O)c4ccc5c(c4)C(=O)C(C(=O)[C@@H]4C[C@H](C)CN4C(=O)OC(C)(C)C)C5=O)cc3C2=O)N(C(=O)OC(C)(C)C)C1` (stereo partly drawn) [Example 132, tert-butyl (2S,4S)-2-(5-{2-[(2S,4S)-1-[(tert-butoxy)carbonyl]-4-methylpyrrolidine-2-carbonyl]-1,3-dioxo-2,3-dihydro-1H-indene-5-carbonyl}-1,3-dioxo-2,3-dihydro-1H-indene-2-carbonyl)-4-methylpyrrolidine-1-carboxylate] were, in that order, 79%, 88% and 3.5 µM.
In the same order, the values of `C=C1C[C@@H](C(=O)C2C(=O)c3ccc(C(=O)c4ccc5c(c4)C(=O)C(C(=O)[C@@H]4CC(=C)CN4C(=O)OC(C)(C)C)C5=O)cc3C2=O)N(C(=O)OC(C)(C)C)C1` (stereo partly drawn) [Example 133, tert-butyl (2S)-2-(5-{2-[(2S)-1-[(tert-butoxy)carbonyl]-4-methylidenepyrrolidine-2-carbonyl]-1,3-dioxo-2,3-dihydro-1H-indene-5-carbonyl}-1,3-dioxo-2,3-dihydro-1H-indene-2-carbonyl)-4-methylidenepyrrolidine-1-carboxylate] are 66%, 88% and approximately 6 µM.
As to `CC(C)OC(=O)N1CCC[C@H]1C(=O)C1C(=O)c2ccc(C(=O)c3ccc4c(c3)C(=O)C(C(=O)[C@@H]3CCCN3C(=O)OC(C)C)C4=O)cc2C1=O` (stereo partly drawn) [Example 134, propan-2-yl (2S)-2-(5-{1,3-dioxo-2-[(2S)-1-[(propan-2-yloxy)carbonyl]pyrrolidine-2-carbonyl]-2,3-dihydro-1H-indene-5-carbonyl}-1,3-dioxo-2,3-dihydro-1H-indene-2-carbonyl)pyrrolidine-1-carboxylate], the IC50 was 1.1 µM.
Regarding `CC1(C)O[C@H]2O[C@@H](/C(O)=C3\C(=O)c4ccc(C(=O)c5ccc6c(c5)C(=O)/C(=C(\O)[C@@H]5O[C@@H]7OC(C)(C)O[C@@H]7[C@H]7OC(C)(C)O[C@@H]75)C6=O)cc4C3=O)[C@H]3OC(C)(C)O[C@@H]3[C@H]2O1` [Example 135, 5-{1,3-dioxo-2-[(1S,2R,6R,8R,9S)-4,4,11,11-tetramethyl-3,5,7,10,12-pentaoxatricyclo[7.3.0.0^2,^6]dodecane-8-carbonyl]-2,3-dihydro-1H-indene-5-carbonyl}-2-[(1S,2R,6R,8R,9S)-4,4,11,11-tetramethyl-3,5,7,10,12-pentaoxatricyclo[7.3.0.0^2,^6]dodecane-8-carbonyl]-2,3-dihydro-1H-indene-1,3-dione], the inhibition at 5 µM amounted to 79%, the inhibition at 10 µM was found to be 88% and the half-maximal inhibitory concentration (IC50) turned out to be 3.8 µM.
In the same order, the values of `CO[C@@H](C(=O)C1C(=O)c2ccc(S(=O)(=O)c3ccc4c(c3)C(=O)C(C(=O)[C@H](OC)c3ccccc3)C4=O)cc2C1=O)c1ccccc1` (stereo partly drawn) [Example 136, 2-[(2R)-2-methoxy-2-phenylacetyl]-5-({2-[(2R)-2-methoxy-2-phenylacetyl]-1,3-dioxo-2,3-dihydro-1H-inden-5-yl}sulfonyl)-2,3-dihydro-1H-indene-1,3-dione] are 75%, 86% and 18 µM.
On to `O=C(Cc1ccccc1)C1C(=O)c2ccc(S(=O)(=O)c3ccc4c(c3)C(=O)C(C(=O)Cc3ccccc3)C4=O)cc2C1=O` (stereo not drawn) [Example 137, 5-{[1,3-dioxo-2-(2-phenylacetyl)-2,3-dihydro-1H-inden-5-yl]sulfonyl}-2-(2-phenylacetyl)-2,3-dihydro-1H-indene-1,3-dione], for which the inhibition at 5 µM stood at 80%, the inhibition at 10 µM was 85% and the IC50 stood at 6 µM.
For `CC(C)(C)OC(=O)N1CC[C@H]1C(=O)C1C(=O)c2ccc(S(=O)(=O)c3ccc4c(c3)C(=O)C(C(=O)[C@@H]3CCN3C(=O)OC(C)(C)C)C4=O)cc2C1=O` (stereo partly drawn) [Example 138, tert-butyl (2S)-2-[5-({2-[(2S)-1-[(tert-butoxy)carbonyl]azetidine-2-carbonyl]-1,3-dioxo-2,3-dihydro-1H-inden-5-yl}sulfonyl)-1,3-dioxo-2,3-dihydro-1H-indene-2-carbonyl]azetidine-1-carboxylate], the IC50 came out at 4.1 µM.
In the case of `O=C(Cn1cccn1)C1C(=O)c2ccc(S(=O)(=O)c3ccc4c(c3)C(=O)C(C(=O)Cn3cccn3)C4=O)cc2C1=O` (stereo not drawn) [Example 139, 5-({1,3-dioxo-2-[2-(1H-pyrazol-1-yl)acetyl]-2,3-dihydro-1H-inden-5-yl}sulfonyl)-2-[2-(1H-pyrazol-1-yl)acetyl]-2,3-dihydro-1H-indene-1,3-dione], the inhibition at 5 µM amounted to 87%, the inhibition at 10 µM worked out at 97% and the IC50 was 7 µM.
The like results for `O=C(c1ccc2c(c1)C(=O)C(C(=O)CC1CC1)C2=O)c1ccc2c(c1)C(=O)C(C(=O)CC1CC1)C2=O` (stereo not drawn) [Example 140, 2-(2-cyclopropylacetyl)-5-[2-(2-cyclopropylacetyl)-1,3-dioxo-2,3-dihydro-1H-indene-5-carbonyl]-2,3-dihydro-1H-indene-1,3-dione] were, in that order, 92%, 93% and 4.7 µM.
For `O=C(c1ccc2c(c1)C(=O)C(C(=O)CC1CCCC1)C2=O)c1ccc2c(c1)C(=O)C(C(=O)CC1CCCC1)C2=O` (stereo not drawn) [Example 141, 2-(2-cyclopentylacetyl)-5-[2-(2-cyclopentylacetyl)-1,3-dioxo-2,3-dihydro-1H-indene-5-carbonyl]-2,3-dihydro-1H-indene-1,3-dione], the inhibition at 5 µM was 38% and the inhibition at 10 µM worked out at 68%.
`O=C(CC1CCCC1)C1C(=O)c2ccc(S(=O)(=O)c3ccc4c(c3)C(=O)C(C(=O)CC3CCCC3)C4=O)cc2C1=O` (stereo not drawn) [Example 142, 2-(2-cyclopentylacetyl)-5-{[2-(2-cyclopentylacetyl)-1,3-dioxo-2,3-dihydro-1H-inden-5-yl]sulfonyl}-2,3-dihydro-1H-indene-1,3-dione]: the inhibition at 5 µM stood at 95%, the inhibition at 10 µM was 94% and the half-inhibitory concentration (IC50) was 18 µM.
For `O=C(c1ccc2c(c1)C(=O)C(C(=O)COc1ccccc1)C2=O)c1ccc2c(c1)C(=O)C(C(=O)COc1ccccc1)C2=O` (stereo not drawn) [Example 143, 5,5-[1,3-dioxo-2-(2-phenoxyacetyl)-2,3-dihydro-1H-indene-5-carbonyl]-2-(2-phenoxyacetyl)-2,3-dihydro-1H-indene-1,3-dione], the IC50 turned out to be 7 µM.
Same read-out and setting: for `O=C(COc1ccccc1)C1C(=O)c2ccc(S(=O)(=O)c3ccc4c(c3)C(=O)C(C(=O)COc3ccccc3)C4=O)cc2C1=O` (stereo not drawn) [Example 144, 5-{[1,3-dioxo-2-(2-phenoxyacetyl)-2,3-dihydro-1H-inden-5-yl]sulfonyl}-2-(2-phenoxyacetyl)-2,3-dihydro-1H-indene-1,3-dione] the value was 4.7 µM.
Consider `CC(C)CC(=O)C1C(=O)c2ccc(S(=O)(=O)c3ccc4c(c3)C(=O)C(C(=O)CC(C)C)C4=O)cc2C1=O` (stereo not drawn) [Example 145, 2-(3-methylbutanoyl)-5-{[2-(3-methylbutanoyl)-1,3-dioxo-2,3-dihydro-1H-inden-5-yl]sulfonyl}-2,3-dihydro-1H-indene-1,3-dione], for which the inhibition at 5 µM turned out to be 45% and the inhibition at 10 µM worked out at 55%.
In the same order, the values of `O=C(c1ccc2c(c1)C(=O)C(C(=O)C1CCOC1)C2=O)c1ccc2c(c1)C(=O)C(C(=O)C1CCOC1)C2=O` (stereo not drawn) [Example 146, 5-[1,3-dioxo-2-(oxolane-3-carbonyl)-2,3-dihydro-1H-indene-5-carbonyl]-2-(oxolane-3-carbonyl)-2,3-dihydro-1H-indene-1,3-dione] are 44% and 40%.
The like results for `O=C1c2ccc(S(=O)(=O)c3ccc4c(c3)C(=O)C(C(=O)C3CCOC3)C4=O)cc2C(=O)C1C(=O)C1CCOC1` (stereo not drawn) [Example 147, 5-{[1,3-dioxo-2-(oxolane-3-carbonyl)-2,3-dihydro-1H-inden-5-yl]sulfonyl}-2-(oxolane-3-carbonyl)-2,3-dihydro-1H-indene-1,3-dione] were, in that order, 55% and 59%.
The like results for `O=C(CC1CCCCC1)C1C(=O)c2ccc(S(=O)(=O)c3ccc4c(c3)C(=O)C(C(=O)CC3CCCCC3)C4=O)cc2C1=O` (stereo not drawn) [Example 148, 2-(2-cyclohexylacetyl)-5-{[2-(2-cyclohexylacetyl)-1,3-dioxo-2,3-dihydro-1H-inden-5-yl]sulfonyl}-2,3-dihydro-1H-indene-1,3-dione] were, in that order, 59% and 90%.
